Key:
[1] = target: T1, DNA topoisomerase 1 (Homo sapiens) (UniProt P11387); assay: Concentration tested for Top1-mediated DNA cleavage (concentration taken upto 100 uM);0: no activity; assay type: functional
T1 sequence (whole entry): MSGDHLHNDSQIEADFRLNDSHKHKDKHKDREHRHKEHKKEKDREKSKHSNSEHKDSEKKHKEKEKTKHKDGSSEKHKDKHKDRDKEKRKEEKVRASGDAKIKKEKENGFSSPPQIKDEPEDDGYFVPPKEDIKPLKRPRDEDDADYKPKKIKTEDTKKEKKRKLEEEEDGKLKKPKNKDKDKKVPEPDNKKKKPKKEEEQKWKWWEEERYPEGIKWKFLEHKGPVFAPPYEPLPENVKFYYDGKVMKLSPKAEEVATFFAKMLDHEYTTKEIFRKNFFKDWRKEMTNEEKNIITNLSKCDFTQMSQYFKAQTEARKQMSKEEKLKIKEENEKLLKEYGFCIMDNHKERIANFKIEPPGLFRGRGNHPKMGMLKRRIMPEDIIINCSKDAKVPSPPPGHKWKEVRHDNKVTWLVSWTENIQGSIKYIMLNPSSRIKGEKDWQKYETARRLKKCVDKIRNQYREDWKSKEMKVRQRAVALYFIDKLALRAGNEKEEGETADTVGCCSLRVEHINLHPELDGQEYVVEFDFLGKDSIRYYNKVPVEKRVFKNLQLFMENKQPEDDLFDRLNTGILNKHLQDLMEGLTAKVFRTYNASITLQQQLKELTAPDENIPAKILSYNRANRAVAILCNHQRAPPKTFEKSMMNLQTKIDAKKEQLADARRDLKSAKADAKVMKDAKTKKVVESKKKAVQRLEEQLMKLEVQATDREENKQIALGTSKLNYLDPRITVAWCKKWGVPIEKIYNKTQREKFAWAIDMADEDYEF

Cell line = assay: Mean graph midpoint for growth inhibition of all human cancer cell lines; assay type: functional
[2] = target: T1, DNA topoisomerase 1 (Homo sapiens); assay: Concentration tested for Top1-mediated DNA cleavage (concentration taken upto 100 uM); assay type: functional
P388 [3] = assay: Ratio of the growth inhibition for P388 resistant cells to that of parental cells; Value expressed as RF (resistance factor); assay type: functional, Homo sapiens
HCT-116 [4] = assay: Ratio of the growth inhibition for HCT116 resistant cells to that of parental cells; Value expressed as RF (resistance factor); assay type: functional, Homo sapiens
HCT-116 [5] = assay: Ratio of the growth inhibition for HCT116 Top1 resistant cells to that of parental cells; Value expressed as RF (resistance factor); assay type: functional, Homo sapiens
[6] = Ratio of the growth inhibition for P388/CPT 45 resistant cells to that of parental cells; Value expressed as RF (resistance factor); assay type: functional, Homo sapiens
[7] = Growth inhibition against Colon HCT116 cell line; assay type: functional, Homo sapiens, HCT-116
OVCAR-3 [8] = assay: Growth inhibition against Ovarian OVCAR-3 cell line; assay type: functional; conditions: Homo sapiens
DU-145 [9] = assay: Growth inhibition against Prostate DU-145 cell line; assay type: functional; conditions: Homo sapiens
[10] = (§1) Growth inhibition against Breast MDA-MB-435 cell line; assay type: functional; conditions: Homo sapiens
[11] = (§2) Growth inhibition against Melanoma UACC-62 cell line; assay type: functional, Homo sapiens
P388 [12] = assay: Growth inhibition against P388 cell line; assay type: functional; conditions: Mus musculus
HCT-116 [13] = assay: Growth inhibition against HCT116 cell line; assay type: functional; conditions: Homo sapiens
[14] = Growth inhibition against P388 cell line in; assay type: functional
HCT-116 [15] = assay: Growth inhibition against HCT116 V cell line; assay type: functional; conditions: Homo sapiens
[16] = Growth inhibition against CNS SF-539 cell line; assay type: functional; conditions: Homo sapiens
[17] = Growth inhibition against Renal SN12C cell line; assay type: functional; conditions: Homo sapiens
HOP-62 = assay: Growth inhibition against Lung HOP-62 cell line; assay type: functional; conditions: Homo sapiens
HCT-116 [18] = assay: Growth inhibition against HCT116 DNA topoisomerase 1 in (Top1-deficient and parental tumor cells); assay type: functional; conditions: Homo sapiens
HCT-116 [19] = assay: Ratio of the growth inhibition for Top1 siRNA cells (HCT116-Top1) to that for the vector-control cells (HCT116-V); Value expressed as RF (resistance factor); assay type: functional, Homo sapiens
SF-539 = assay: Growth inhibition against CNSSF-539 cell line; assay type: functional; conditions: Homo sapiens
DU-145 [20] = assay: Growth inhibition against ProstateDU-145 cell line; assay type: functional; conditions: Homo sapiens
[21] = Growth inhibition against ColonHCT-116 cell line; assay type: functional; conditions: Homo sapiens
OVCAR-3 [22] = assay: Growth inhibition against OvarianOVCAR-3 cell line; assay type: functional; conditions: Homo sapiens
UACC-62 = assay: as §2; assay type: functional; conditions: Homo sapiens
MDA-MB-435 = assay: as §1; assay type: functional; conditions: Homo sapiens
[23] = target: T1, DNA topoisomerase 1 (Homo sapiens); assay: Concentration tested for Top1-mediated DNA cleavage (concentration taken upto 100 uM); ++: similar activity as the parent compound 3a; assay type: functional
[24] = target: T1, DNA topoisomerase 1 (Homo sapiens); assay: Concentration tested for Top1-mediated DNA cleavage (concentration taken upto 100 uM);+: weak activity; assay type: functional
[25] = target: T1, DNA topoisomerase 1 (Homo sapiens); assay: Concentration tested for Top1-mediated DNA cleavage;+: weak activity; assay type: functional
[26] = target: T1, DNA topoisomerase 1 (Homo sapiens); assay: Concentration tested for Top1-mediated DNA cleavage (concentration taken upto 100 uM); +++: Good activity; assay type: functional

C=CCN1C(=O)c2cc(OC)c(OC)cc2[C@H]2C(=O)c3cc4c(cc3[C@H]21)OCO4
Concentration [1]: 100 µM | MGM (Cell line): 0.98 µM

COc1cc2c(cc1OC)[C@H]1C(=O)c3cc4c(cc3[C@H]1N(C)C2=O)OCO4
Concentration [2]: 100 µM | MGM (Cell line): 5 µM | RF (P388 [3]): 1 | RF (HCT-116 [4]): 1 | RF (HCT-116 [5]): 35 | RF [6]: 128 | GI50 ([7]; Homo sapiens, HCT-116): 2 µM | GI50 (OVCAR-3 [8]): 6.7 µM | GI50 (DU-145 [9]): 4.1 µM | GI50 [10]: 17 µM | GI50 ([11]; Homo sapiens, UACC-62): 0.42 µM | GI50 (P388 [12]): 0.00988 µM | GI50 (HCT-116 [13]): 0.0599 µM | GI50 [14]: 1.26 µM | GI50 (HCT-116 [15]): 0.418 µM | GI50 [16]: 3.1 µM | GI50 [17]: 2.1 µM | GI50 (HOP-62): 9.4 µM | GI50 (HCT-116 [18]): 0.012 µM | RF (HCT-116 [19]): 7

COc1cc2c3c(n(C)c(=O)c2cc1OC)-c1cc2c(cc1C3=O)OCO2
GI50 (SF-539): 41 µM | GI50 (DU-145 [20]): 37 µM | MGM (Cell line): 20 µM | GI50 [21]: 35 µM | GI50 (OVCAR-3 [22]): 73 µM | GI50 (UACC-62): 4.2 µM | GI50 (MDA-MB-435): 96 µM | GI50 [17]: 68 µM | GI50 (HOP-62): 1.3 µM | Concentration [23]: 100 µM

C=CCn1c2c(c3cc(OC)c(OC)cc3c1=O)C(=O)c1cc3c(cc1-2)OCO3
Concentration [24]: 100 µM | MGM (Cell line): 4.16 µM

O=C1c2cc3c(cc2[C@@H]2[C@H]1c1ccc([N+](=O)[O-])cc1C(=O)N2CCCCl)OCO3
Concentration [25]: 100 µM | MGM (Cell line): 0.018 µM

O=C1c2cc3c(cc2-c2c1c1ccc([N+](=O)[O-])cc1c(=O)n2CCCCl)OCO3
Concentration [26]: 100 µM | MGM (Cell line): 0.83 µM

COc1cc2c(cc1OC)[C@@]1(C)C(=O)c3cc4c(cc3[C@H]1N(C)C2=O)OCO4
MGM (Cell line): 51.3 µM | GI50 [7]: 24 µM | GI50 ([7]; Homo sapiens, HCT-116): 43.5 µM | GI50 [10]: > 100 µM | GI50 [11]: 58.1 µM | GI50 ([11]; Homo sapiens, UACC-62): 82.4 µM | GI50 [16]: 96.2 µM | GI50 [17]: 26 µM | GI50 (HOP-62): > 100 µM | Concentration [23]: 100 µM

Source: ChEMBL document CHEMBL1145275, “Dihydroindenoisoquinolines function as prodrugs of indenoisoquinolines” (2005)
